Results from patent US12552783B2, “Modulators of proteolysis and associated methods of use” (Arvinas Operations, Inc., priority 2018, dated 2026).

Biological target: KRas (Homo sapiens, UniProt P01116, G12C)
Test: KRas degradation in NCI-H2030 cells by Western blot, normalized to GAPDH (data of Table 14)
Assay type: cell-based
Parameters: host or cells: NCI-H2030
Details: for Dmax: NCI-H2030
Protocol: Cell Lines, Antibodies, and Reagents. NCI-H2030 (CRL-5914) and SW1573 (CRL-2170) cells were purchased from ATCC. Both cell lines are homozygous for the G12C mutation in KRas. NCI-H2030 cells were cultured in RPMI-1640 medium containing 1% penicillin-streptomycin and 10% fetal bovine serum (FBS). SW1573 cells were cultured in DMEM containing 1% penicillin-streptomycin and 10% FBS. The KRas detection antibody (Cat. No. LS-C175665) was purchased from LifeSpan Biosciences and was used at a dilution of 1:2000. GAPDH was detected using an antibody purchased from Cell Signaling Technology (Cat. No. 5174) and was diluted 1:3000. Secondary anti-mouse and anti-rabbit detection antibodies were purchased from Cell Signaling Technology (Cat. Nos. 7076 and 7074, respectively).
Compound Treatment and Western Blotting of the Data of Table 14. Either NCI-H2030 or SW1573 cells were plated in 12-well plates and allowed to adhere overnight at 37° C. in an incubator containing 5% CO2. The following day, the medium was replaced with the appropriate medium lacking FBS to induce starvation. Cells were returned to the incubator for an additional 24 hours following media exchange. […] Cells were treated with VHL-based compounds for 24 hours and all other compounds for 72 hours. Following treatment, cells were lysed in RIPA buffer (Thermo Fisher Cat. No. 89900) containing phosphatase (Thermo Fisher Cat. No. 1861277) and protease (Thermo Fisher Cat. No. 78429) inhibitor cocktails. Lysates were cleared at 13,000 rpm for 15 minutes and supernatants were assayed for total protein concentration using the Pierce BCA assay system (Thermo Fisher Cat. No. 23225). For each sample, 10 μg total protein was resolved on a 12% Bis-Tris gel and then transferred to a nitrocellulose membrane. After blocking in 3% BSA in TBST (Tris-buffered Saline with 0.1% Tween-20) for 1 hour at room temperature, membranes were probed with the primary antibody (LS Bio Cat. No. LS-C175665) overnight at 4° C. After incubation with the secondary antibody, the following day membranes were visualized using the SuperSignal™ West Femto substrate (Thermo Fisher Cat. No. 34095). The KRas signal in each lane was normalized to GAPDH and percent degradation was either estimated as less than 25% by visual inspection (C in Table 13) or quantitated relative to the DMSO control lane using BIO-RAD Image Lab 5.2.1, and all data was plotted using GraphPad PRISM 6.07.
DC50 is the half-maximal degradation concentration—i.e., the concentration at which 50% degradation is observed. DMax is the maximum degradation efficacy is achieved—i.e., the maximal degradation observed) degradation data.

Percent Degradation at Indicated Concentration (μM) (H2030 cells, 0.3 μM) | Percent Degradation at Indicated Concentration (μM) (H2030 cells, 1 μM) | Percent Degradation at Indicated Concentration (μM) (H2030 cells, 3 μM) | Percent Degradation at Indicated Concentration (μM) (H2030, 3 μM) | Percent Degradation at Indicated Concentration (μM) (H2030, 0.3 μM) | Percent Degradation at Indicated Concentration (μM) (H2030, 1 μM) | Dmax [%] | Dmax (H2030 cells) [%] | SMILES
C (Percent Degradation: C ≤ 35) | C (Percent Degradation: C ≤ 35) | C (Percent Degradation: C ≤ 35) |  |  |  |  |  | Cc1ncsc1-c1ccc([C@H](C)NC(=O)[C@@H]2C[C@@H](O)CN2C(=O)[C@@H](NC(=O)COCCN(C)C(=O)CCNc2nc(N3CCN(C(=O)C(O)O)CC3)c3cc(Cl)c(-c4c(O)cccc4F)c(F)c3n2)C(C)(C)C)cc1 (atropisomer, axis not shown) [compound 235, (2S,4R)-1-((S)-2-(2-(2-(3-(((R)-6-chloro-4-(4-(2,2-dihydroxyacetyl)piperazin-1-yl)-8-fluoro-7-(2-fluoro-6-hydroxyphenyl)quinazolin-2-yl)amino)-N-methylpropanamido)ethoxy)acetamido)-3,3-dimethylbutanoyl)-4-hydroxy-N-((S)-1-(4-(4-methylthiazol-5-yl)phenyl)ethyl)pyrrolidine-2-carboxamide]
 |  |  | C (Percent Degradation: C ≤ 35) |  |  |  |  | Cc1ncsc1-c1ccc([C@H](C)NC(=O)[C@@H]2C[C@@H](O)CN2C(=O)[C@@H](NC(=O)COCCOCCN(C)C(=O)CCNc2nc(N3CCN(C(=O)C(O)O)CC3)c3cc(Cl)c(-c4c(O)cccc4F)c(F)c3n2)C(C)(C)C)cc1 (atropisomer, axis not shown) [compound 236, (2S,4R)-1-((S)-2-(tert-butyl)-15-(((S)-6-chloro-4-(4-(2,2-dihydroxyacetyl)piperazin-1-yl)-8-fluoro-7-(2-fluoro-6-hydroxyphenyl)quinazolin-2-yl)amino)-12-methyl-4,13-dioxo-6,9-dioxa-3,12-diazapentadecanoyl)-4-hydroxy-N-((S)-1-(4-(4-methylthiazol-5-yl)phenyl)ethyl)pyrrolidine-2-carboxamide]
 |  |  | C (Percent Degradation: C ≤ 35) | C (Percent Degradation: C ≤ 35) | C (Percent Degradation: C ≤ 35) | ≤ 35 |  | Cc1ncsc1-c1ccc([C@H](C)NC(=O)[C@@H]2C[C@@H](O)CN2C(=O)[C@@H](NC(=O)COCCOCCN(C)C(=O)CCNc2nc(N3CCN(C(=O)C(O)O)CC3)c3cc(Cl)c(-c4c(O)cccc4F)c(F)c3n2)C(C)(C)C)cc1 (atropisomer, axis not shown) [compound 237, (2S,4R)-1-((S)-2-(tert-butyl)-15-(((R)-6-chloro-4-(4-(2,2-dihydroxyacetyl)piperazin-1-yl)-8-fluoro-7-(2-fluoro-6-hydroxyphenyl)quinazolin-2-yl)amino)-12-methyl-4,13-dioxo-6,9-dioxa-3,12-diazapentadecanoyl)-4-hydroxy-N-((S)-1-(4-(4-methylthiazol-5-yl)phenyl)ethyl)pyrrolidine-2-carboxamide]
 |  | C (Percent Degradation: C ≤ 35) |  |  |  |  |  | Cc1ncsc1-c1ccc([C@H](C)NC(=O)[C@@H]2C[C@@H](O)CN2C(=O)[C@@H](NC(=O)COCCOCCOCCN(C)C(=O)CCNc2nc(N3CCN(C(=O)C(O)O)CC3)c3cc(Cl)c(-c4c(O)cccc4F)c(F)c3n2)C(C)(C)C)cc1 (atropisomer, axis not shown) [compound 238, (2S,4R)-1-((S)-2-(tert-butyl)-18-((6-chloro-4-(4-(2,2-dihydroxyacetyl)piperazin-1-yl)-8-fluoro-7-((S)-2-fluoro-6-hydroxyphenyl)quinazolin-2-yl)amino)-15-methyl-4,16-dioxo-6,9,12-trioxa-3,15-diazaoctadecanoyl)-4-hydroxy-N-((S)-1-(4-(4-methylthiazol-5-yl)phenyl)ethyl)pyrrolidine-2-carboxamide]
C (Percent Degradation: C ≤ 35) | C (Percent Degradation: C ≤ 35) | C (Percent Degradation: C ≤ 35) |  |  |  |  | ≤ 35 | Cc1ncsc1-c1ccc([C@H](C)NC(=O)[C@@H]2C[C@@H](O)CN2C(=O)[C@@H](NC(=O)COCCOCCOCCN(C)C(=O)CCNc2nc(N3CCN(C(=O)C(O)O)CC3)c3cc(Cl)c(-c4c(O)cccc4F)c(F)c3n2)C(C)(C)C)cc1 (atropisomer, axis not shown) [compound 239, (2S4R)-1-((S)-2-(tert-butyl)-18-((6-chloro-4-(4-(2,2-dihydroxyacetyl)piperazin-1-yl)-8-fluoro-7-((R)-2-fluoro-6-hydroxyphenyl)quinazolin-2-yl)amino)-15-methyl-4,16-dioxo-6,9,12-trioxa-3,15-diazaoctadecanoyl)-4-hydroxy-N-((S)-1-(4-(4-methylthiazol-5-yl)phenyl)ethyl)pyrrolidine-2-carboxamide,]
C (Percent Degradation: C ≤ 35) | C (Percent Degradation: C ≤ 35) | C (Percent Degradation: C ≤ 35) |  |  |  |  |  | Cc1ncsc1-c1ccc([C@H](C)NC(=O)[C@@H]2C[C@@H](O)CN2C(=O)[C@@H](NC(=O)COCCOCCOCCOCCN(C)C(=O)CCNc2nc(N3CCN(C(=O)C(O)O)CC3)c3cc(Cl)c(-c4c(O)cccc4F)c(F)c3n2)C(C)(C)C)cc1 (atropisomer, axis not shown) [compound 240, (2S,4R)-1-((S)-2-(tert-butyl)-21-(((S)-6-chloro-4-(4-(2,2-dihydroxyacetyl)piperazin-1-yl)-8-fluoro-7-(2-fluoro-6-hydroxyphenyl)quinazolin-2-yl)amino)-18-methyl-4,19-dioxo-6,9,12,15-tetraoxa-3,18-diazahenicosanoyl)-4-hydroxy-N-((S)-1-(4-(4-methylthiazol-5-yl)phenyl)ethyl)pyrrolidine-2-carboxamide]
 |  |  | C (Percent Degradation: C ≤ 35) | C (Percent Degradation: C ≤ 35) | C (Percent Degradation: C ≤ 35) | ≤ 35 |  | C=CC(=O)N1CCN(c2nc(NCCC(=O)N(C)CCOCCOc3ccc(-c4csc([C@@H]5CCCN5C(=O)[C@@H](NC(=O)[C@H](C)NC)C5CCCCC5)n4)c4ccccc34)nc3c(F)c(-c4c(O)cccc4F)c(Cl)cc23)CC1 (atropisomer, axis not shown) [compound 276, 3-((4-(4-acryloylpiperazin-1-yl)-6-chloro-8-fluoro-7-((S)-2-fluoro-6-hydroxyphenyl)quinazolin-2-yl)amino)-N-(2-(2-((4-(2-((S)-1-((S)-2-cyclohexyl-2-((S)-2-(methylamino)propan-amido)acetyl)pyrrolidin-2-yl)thiazol-4-yl)naphthalen-1-yl)oxy)ethoxy)ethyl)-N-methylpropanamide]
 |  |  | C (Percent Degradation: C ≤ 35) | C (Percent Degradation: C ≤ 35) | C (Percent Degradation: C ≤ 35) | ≤ 35 |  | C=CC(=O)N1CCN(c2nc(NCCC(=O)N(C)CCOCCOCCOCCOc3ccc(-c4csc([C@@H]5CCCN5C(=O)[C@@H](NC(=O)[C@H](C)NC)C5CCCCC5)n4)c4ccccc34)nc3c(F)c(-c4c(O)cccc4F)c(Cl)cc23)CC1 (atropisomer, axis not shown) [compound 278, 3-((4-(4-acryloylpiperazin-1-yl)-6-chloro-8-fluoro-7-((S)-2-fluoro-6-hydroxyphenyl)quinazolin-2-yl)amino)-N-(2-(2-(2-(2-((4-(2-((S)-1-((S)-2-cyclohexyl-2-((S)-2-(methylamino)propan-amido)acetyl)pyrrolidin-2-yl)thiazol-4-yl)naphthalen-1-yl)oxy)ethoxy)ethoxy)eth-oxy)ethyl)-N-methylpropanamide]
